Reference: US8053577B2, “Derivatives of 5,9-methanocycloocta[b]pyridin-2-(1H)-one, their preparation and use as analgesics” (priority 2006, dated 2011)

Test system: mice
Assay: Analgesic effect of intragastric administration on mice measured with hot-plate test
Format: in vivo, ICR mice
Details: x ± s, n = 10; for pain threshold before administration / pain-threshold before administration: baseline; for pain-threshold after administration / pain-threshold before administration: time course
Method: The analgesic effect with a single dose of the compounds represented by Formula I is preliminarily screened at single time point through hot-plate test, with fortanodyn and aspirin as positive controls. All of the compounds are administered intragastrically.
On the basis of preliminary screening results, several representative compounds were selected to test their analgesic duration, and a part of the results is listed in Table 4. The results illustrate that the analgesic duration of most compounds is longer than 2 hours after a single oral administration, and that some of the compounds have analgesic duration lasting longer than 4 hours.
Furthermore, the dose-effect relationship on an analgesic model of two compounds was tested and the results are shown in Table 5.
Analgesic effect of intragastric administration on mice measured with hot-plate test
Female ICR mice, weight 20+2 g, were purchased from Department of Laboratory Animal Science, Beijing University, animal license number: SCXK 2002-0001.
A) Samples: samples were prepared as mixtures with 0.9% NaCl solution for intragastric administration to mice.
B) Fortanodyn: 30 mg/pill (TianJin LiSheng Pharmaceutical Co. Ltd, lot number: 0201001), 1.5 mg/mL solution was prepared with 0.9% NaCl solution for intragastric administration to mice.
1) Hot-plate test on mice was employed. A thermostatic water bath was adjusted at 55±0.5° C., the bottom of metal plates contacted water surface and used as stimuli after heating. The time span(s) from the point when the mouse was placed onto the hot-plate to the time when the mouse started to lick its metapedes was determined as its pain threshold, which was recorded by stopwatch. Female mice with a weight of 20±2 g were used. The pain threshold of every mouse was measured twice before administration, and the qualified mice are the ones whose average pain threshold was less than 30 seconds.
The qualified mice were randomly grouped with 10 mice in each group. The pain threshold before administration was determined as the basic pain threshold. To the medication administration team, drugs of different dose were given through intragastric administration, whereas to the control group, 0.9% NaCl solution was given. The administration volume was 0.2 mL for every 10 g body weight. The pain threshold of each group was measured at 1 hour after administration.
After administration the pain threshold of each group at different time was measured. The experimental data was statistically treated with t-test using SPSS10 statistics software.

[1] = Table 3 screening, 0.6 mg/kg intragastric, 1 hour
[2] = Table 3 screening, group dosed 0.6 mg/kg intragastric

Row | Compound | pain threshold after administration [1] [s] | pain threshold before administration [2] [s] | further results
1 | C/C=C1\C2C=C(C)CC1(/N=C\C=C\c1ccc(/C=C/C=N/C34CC(C)=CC(Cc5[nH]c(=O)ccc53)/C4=C\C)cc1)c1ccc(=O)[nH]c1C2 [Example 28] | 23.4 ± 3.88 | 12.6 ± 2.73 | 
2 | C/C=C1\[C@H]2C=C(C)C[C@]1(/N=C/C=C/c1cccc(Cl)c1)c1ccc(=O)[nH]c1C2 [Example 15, (5R,9R,11E)-5-(3-(3-chlorophenyl)prop-2-en-1-ylideneamino)-11-ethylidene-5,6,9,10-tetrahydro-7-methyl-5,9-methanocycloocta[b]pyridin-2(1H)-one] | 28.8 ± 3.92 | 13.0 ± 3.63 | 
3 | C/C=C1\[C@H]2C=C(C)C[C@]1(/N=C/C=C/c1cccc(OC)c1)c1ccc(=O)[nH]c1C2 [Example 19, (5R,9R,11E)-5-(3-(3-methoxylphenyl)prop-2-en-1-ylideneamino)-11-ethylidene-5,6,9,10-tetrahydro-7-methyl-5,9-methanocycloocta[b]pyridin-2(1H)-one] | 18.6 ± 3.44 | 12.0 ± 2.53 | 
4 | C/C=C1\[C@H]2C=C(C)C[C@]1(/N=C/C=C/c1ccccc1Br)c1ccc(=O)[nH]c1C2 [Example 12, (5R,9R,11E)-5-(3-(2-bromophenyl)prop-2-en-1-ylideneamino)-11-ethylidene-5,6,9,10-tetrahydro-7-methyl-5,9-methanocycloocta[b]pyridin-2(1H)-one] | 19.6 ± 4.03 | 12.4 ± 2.58 | 
5 | C/C=C1\[C@H]2C=C(C)C[C@]1(/N=C/C=C/c1ccccc1C)c1ccc(=O)[nH]c1C2 [Example 5, (5R,9R,11E)-5-(3-(2-methylphenyl)prop-2-en-1-ylideneamino)-11-ethylidene-5,6,9,10-tetrahydro-7-methyl-5,9-methanocycloocta[b]pyridin-2(1H)-one] | 27.6 ± 6.22 | 12.8 ± 3.12 | 
6 | C/C=C1\[C@H]2C=C(C)C[C@]1(/N=C/C=C/c1ccco1)c1ccc(=O)[nH]c1C2 [Example 21, (5R,9R,11E)-5-(3-(furan-2-yl)prop-2-en-1-ylideneamino)-11-ethylidene-5,6,9,10-tetrahydro-7-methyl-5,9-methanocycloocta[b]pyridin-2(1H)-one] |  |  | pain threshold after administration (dose-effect, 0.42 mg/kg intragastric, 30 min): 16.3 ± 4.47 s; pain threshold after administration (dose-effect, 0.42 mg/kg intragastric, 60 min): 16.4 ± 4.03 s; pain threshold after administration (dose-effect, 0.42 mg/kg intragastric, 120 min): 13.2 ± 2.86 s; pain threshold after administration (dose-effect, 0.42 mg/kg intragastric, 180 min): 14.1 ± 1.66 s; pain threshold before administration (dose-effect, group dosed 0.42 mg/kg intragastric): 12.5 ± 2.79 s; pain-threshold after administration (0.71 mg/kg intragastric, 30 min): 17.2 ± 6.37 s; pain-threshold after administration (0.71 mg/kg intragastric, 60 min): 21.0 ± 8.77 s; pain-threshold after administration (0.71 mg/kg intragastric, 120 min): 16.9 ± 8.32 s; pain-threshold after administration (0.71 mg/kg intragastric, 180 min): 12.9 ± 3.87 s; pain-threshold after administration (0.84 mg/kg intragastric, 30 min): 23.3 ± 7.45 s; pain-threshold after administration (0.84 mg/kg intragastric, 60 min): 28.1 ± 10.15 s; pain-threshold after administration (0.84 mg/kg intragastric, 120 min): 14.9 ± 5.02 s; pain-threshold after administration (0.84 mg/kg intragastric, 180 min): 13.7 ± 2.98 s; pain-threshold before administration (group dosed 0.71 mg/kg intragastric): 11.9 ± 3.90 s; pain-threshold before administration (group dosed 0.84 mg/kg intragastric): 12.3 ± 3.86 s
7 | C/C=C1\[C@H]2C=C(C)C[C@]1(/N=C/C=C/c1ccc(OC)cc1)c1ccc(=O)[nH]c1C2 [Example 17, (5R,9R,11E)-5-(3-(4-methoxylphenyl)prop-2-en-1-ylideneamino)-11-ethylidene-5,6,9,10-tetrahydro-7-methyl-5,9-methanocycloocta[b]pyridin-2(1H)-one] | 24.6 ± 5.46 | 12.2 ± 2.14 | 
8 | C/C=C1\[C@H]2C=C(C)C[C@]1(/N=C/C=C/C=C/C=C/c1ccccc1)c1ccc(=O)[nH]c1C2 [Example 9, (5R,9R,11E)-5-(7-phenylhepta-2,4,6-trien-1-ylideneamino)-11-ethylidene-5,6,9,10-tetrahydro-7-methyl-5,9-methanocycloocta[b]pyridin-2(1H)-one] | 25.8 ± 4.35 | 12.4 ± 2.58 | 
9 | C/C=C1\C2C=C(C)CC1(/N=C/C=C/c1ccc3ccccc3c1)c1ccc(=O)[nH]c1C2 [Example 22, (5R,9R,11E)-5-(3-(naphthalen-2-yl)prop-2-en-1-ylideneamino)-11-ethylidene-5,6,9,10-1,7-dimethyl-5,9-methanocycloocta[b]pyridin-2(1H)-one] | 23.6 ± 4.27 | 12.4 ± 4.13 | 
10 | C/C=C1\[C@H]2C=C(C)C[C@]1(/N=C/C=C/c1ccc(C)cc1)c1ccc(=O)[nH]c1C2 [Example 6, (5R,9R,11E)-5-(3-(4-methylphenyl)prop-2-en-1-ylideneamino)-11-ethylidene-5,6,9,10-tetrahydro-7-methyl-5,9-methanocycloocta[b]pyridin-2(1H)-one] |  |  | pain-threshold after administration (0.76 mg/kg intragastric, 30 min): 24.8 ± 8.77 s; pain-threshold after administration (0.76 mg/kg intragastric, 60 min): 31.9 ± 7.76 s; pain-threshold after administration (0.76 mg/kg intragastric, 120 min): 22.6 ± 8.37 s; pain-threshold after administration (0.76 mg/kg intragastric, 180 min): 25.9 ± 11.50 s; pain-threshold after administration (0.76 mg/kg intragastric, 240 min): 24.5 ± 10.55 s; pain-threshold before administration (group dosed 0.76 mg/kg intragastric): 11.6 ± 4.14 s
11 | C/C=C1\C2C=C(C)CC1(/N=C/C=C/c1c3ccccc3cc3ccccc13)c1ccc(=O)[nH]c1C2 [Example 26, (5R,9R,11E)-5-(3-(anthracen-9-yl)prop-2-en-1-ylideneamino)-11-ethylidene-5,6,9,10-1,7-dimethyl-5,9-methanocycloocta[b]pyridin-2(1H)-one] | 20.8 ± 3.60 |  | 
12 | C/C=C1\[C@H]2C=C(C)C[C@]1(/N=C/C=C/c1cccc(Br)c1)c1ccc(=O)[nH]c1C2 [Example 11, (5R,9R,11E)-5-(3-(3-bromophenyl)prop-2-en-1-ylideneamino)-11-ethylidene-5,6,9,10-tetrahydro-7-methyl-5,9-methanocycloocta[b]pyridin-2(1H)-one] | 23.0 ± 4.98 | 12.8 ± 3.12 | 
13 | C/C=C1\[C@H]2C=C(C)C[C@]1(/N=C/C=C(\C)c1ccccc1)c1ccc(=O)[nH]c1C2 [Example 7, (5R,9R,11E)-5-(3-methyl-3-phenylprop-2-en-1-ylideneamino)-11-ethylidene-5,6,9,10-tetrahydro-7-methyl-5,9-methanocycloocta[b]pyridin-2(1H)-one] | 24.6 ± 5.61 | 12.4 ± 2.33 | 
14 | C/C=C1\[C@H]2C=C(C)C[C@]1(/N=C/C=C/c1ccccc1OC)c1ccc(=O)[nH]c1C2 [Example 18, (5R,9R,11E)-5-(3-(2-methoxylphenyl)prop-2-en-1-ylideneamino)-11-ethylidene-5,6,9,10-tetrahydro-7-methyl-5,9-methanocycloocta[b]pyridin-2(1H)-one] | 26.0 ± 5.01 | 13.0 ± 3.03 | 
